Experimental data taken from the supplement of paper PMC10307832.

Columns and labels:
Assay in all cases: relative viability (nuclei count vs DMSO), 5 days (fraction); higher = more cells survive
Doxorubicin + Pictilisib = compound: COc1cccc2c1C(=O)c1c(O)c3c(c(O)c1C2=O)C[C@@](O)(C(=O)CO)C[C@@H]3O[C@H]1C[C@H](N)[C@H](O)[C@H](C)O1 [Doxorubicin] + CS(=O)(=O)N1CCN(Cc2cc3nc(-c4cccc5[nH]ncc45)nc(N4CCOCC4)c3s2)CC1 [Pictilisib] (partner 1 µM)
Method in brief: (§1)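 Lung cancer cell lines in 1536-well plates got either a single drug or a fixed anchor-drug dose together with five library-drug doses (not always all listed) in √10 steps, by pin tool, on the day after seeding. Nuclei were counted after 5 days, and relative viability is the treated-to-vehicle ratio of nuclei counts. Values are medians of duplicate plates.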

BAY61-3606 + Palbociclib = compound: COC1=C(C=C(C=C1)C2=CC3=NC=CN3C(=N2)NC4=C(C=CC=N4)C(=O)N)OC [BAY61-3606] + CC(=O)c1c(C)c2cnc(Nc3ccc(N4CCNCC4)cn3)nc2n(C2CCCC2)c1=O [Palbociclib] (partner 0.5 µM)
Method in brief: as §1

Doxorubicin + Olaparib = compound: COc1cccc2c1C(=O)c1c(O)c3c(c(O)c1C2=O)C[C@@](O)(C(=O)CO)C[C@@H]3O[C@H]1C[C@H](N)[C@H](O)[C@H](C)O1 [Doxorubicin] + O=C(c1cc(Cc2n[nH]c(=O)c3ccccc23)ccc1F)N1CCN(C(=O)C2CC2)CC1 [Olaparib] (partner 8 µM)
Method in brief: as §1

[1] = compound: COc1cccc2c1C(=O)c1c(O)c3c(c(O)c1C2=O)C[C@@](O)(C(=O)CO)C[C@@H]3O[C@H]1C[C@H](N)[C@H](O)[C@H](C)O1 [Doxorubicin] + CC(=O)c1c(C)c2cnc(Nc3ccc(N4CCNCC4)cn3)nc2n(C2CCCC2)c1=O [Palbociclib] (partner 0.5 µM)
Method in brief: as §1

Cell Line	relative viability (Doxorubicin + Pictilisib; first compound 0.001 µM)	relative viability (Doxorubicin + Pictilisib; first compound 0.003162 µM)	relative viability (Doxorubicin + Pictilisib; first compound 0.01 µM)	relative viability (Doxorubicin + Pictilisib; first compound 0.03162 µM)	relative viability (Doxorubicin + Pictilisib; first compound 0.1 µM)	relative viability (BAY61-3606 + Palbociclib; first compound 0.02 µM)	relative viability (BAY61-3606 + Palbociclib; first compound 0.06325 µM)	relative viability (BAY61-3606 + Palbociclib; first compound 0.2 µM)	relative viability (BAY61-3606 + Palbociclib; first compound 0.6325 µM)	relative viability (BAY61-3606 + Palbociclib; first compound 2 µM)	relative viability (Doxorubicin + Olaparib; first compound 0.001 µM)	relative viability (Doxorubicin + Olaparib; first compound 0.003162 µM)	relative viability (Doxorubicin + Olaparib; first compound 0.01 µM)	relative viability (Doxorubicin + Olaparib; first compound 0.03162 µM)	relative viability (Doxorubicin + Olaparib; first compound 0.1 µM)	relative viability ([1]; first compound 0.001 µM)	relative viability ([1]; first compound 0.003162 µM)	relative viability ([1]; first compound 0.01 µM)	relative viability ([1]; first compound 0.03162 µM)	relative viability ([1]; first compound 0.1 µM)
NCI-H2170	0.234	0.302	0.352	0.316	0.38	0.338	0.404	0.425	0.412	0.306	0.617	0.735	0.633	0.602	0.704	0.409	0.389	0.386	0.313	0.447
NCI-H2228	0.154	0.272	0.295	0.153	0.117	0.989	0.916	0.731	0.766	0.553	0.579	0.717	0.682	0.249	0.179	0.508	0.914	0.555	0.301	0.184
NCI-H2347	0.563	0.598	0.803	0.615	0.635	0.444	0.41	0.449	0.452	0.436	0.6	0.562	0.544	0.516	0.55	0.456	0.427	0.38	0.394	0.506
NCI-H2405		0.432	0.507	0.356	0.276	0.564	0.517	0.503	0.592	0.494	0.864	0.847	0.788	0.465	0.421	0.537	0.534	0.51	0.463	0.447
NCI-H3122	0.507	0.62	0.566	0.527	0.611	0.159	0.185	0.226	0.231	0.189	0.535	0.616	0.58	0.62	0.634	0.182	0.189	0.187	0.14	0.188
PC-3 [JPC-3]	0.774	0.842	0.758	0.713	0.702	0.531	0.512	0.529	0.521	0.517	1.04	0.944	1.17	0.897	0.825	0.526	0.585	0.544	0.518	0.522
PC-14	0.619	0.926	0.809	0.568	0.663	0.455	0.546	0.468	0.514	0.453	0.239	0.257	0.203	0.0737	0.0408	0.532	0.501	0.312	0.194	0.0531
RERF-LC-KJ	0.531	0.54	0.595	0.501	0.48	1.03	1.2	1.03	1.18	0.924	0.906	0.784	0.55	0.3	0.261	1.07	1.15	0.921	0.542	0.653
SK-LU-1	0.571	0.562	0.434	0.324	0.303	0.356	0.384	0.35	0.357	0.289	0.512	0.451	0.397	0.359	0.356	0.351	0.414	0.351	0.333	0.355
SK-MES-1	0.368	0.395	0.362	0.342	0.204	0.312	0.311	0.385	0.393	0.313	0.659	0.534	0.266	0.2	0.146	0.326	0.319	0.321	0.281	0.23
SW 1573	0.512	0.46	0.424	0.332	0.258	0.455	0.423	0.35	0.344	0.248	0.411	0.298	0.163	0.0977	0.047	0.365	0.316	0.162	0.0939	0.0476
